How the values were obtained:
Test in all cases: relative viability (nuclei count vs DMSO), 5 days (fraction); higher = more cells survive
Venetoclax + AZD7762 = compound: CC1(C)CCC(CN2CCN(c3ccc(C(=O)NS(=O)(=O)c4ccc(NCC5CCOCC5)c([N+](=O)[O-])c4)c(Oc4cnc5[nH]ccc5c4)c3)CC2)=C(c2ccc(Cl)cc2)C1 [Venetoclax] + NC(=O)Nc1cc(-c2cccc(F)c2)sc1C(=O)N[C@H]1CCCNC1 [AZD7762] (partner 0.2 µM)
In short: (§1)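 Medians of duplicate plates are given as relative viability. That measure is the nuclei count in treated wells divided by the count in vehicle wells. Counts were taken on 4× images of lung cancer cell lines in 1536-well plates, 5 days after pin-tool dosing the day after seeding with one drug alone or a fixed anchor-drug dose plus five library-drug doses (not always all listed) in √10 steps.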

Venetoclax + Luminespib = compound: CC1(C)CCC(CN2CCN(c3ccc(C(=O)NS(=O)(=O)c4ccc(NCC5CCOCC5)c([N+](=O)[O-])c4)c(Oc4cnc5[nH]ccc5c4)c3)CC2)=C(c2ccc(Cl)cc2)C1 [Venetoclax] + CCNC(=O)c1noc(-c2cc(C(C)C)c(O)cc2O)c1-c1ccc(CN2CCOCC2)cc1 [Luminespib] (partner 0.01 µM)
In short: as §1

[1] = compound: Cn1cnc2c(F)c(Nc3ccc(Br)cc3Cl)c(C(=O)NOCCO)cc21 [Selumetinib] + CC(=O)c1c(C)c2cnc(Nc3ccc(N4CCNCC4)cn3)nc2n(C2CCCC2)c1=O [Palbociclib] (partner 0.5 µM)
In short: as §1

Venetoclax + Palbociclib = compound: CC1(C)CCC(CN2CCN(c3ccc(C(=O)NS(=O)(=O)c4ccc(NCC5CCOCC5)c([N+](=O)[O-])c4)c(Oc4cnc5[nH]ccc5c4)c3)CC2)=C(c2ccc(Cl)cc2)C1 [Venetoclax] + CC(=O)c1c(C)c2cnc(Nc3ccc(N4CCNCC4)cn3)nc2n(C2CCCC2)c1=O [Palbociclib] (partner 0.5 µM)
In short: as §1

Cell Line	relative viability (Venetoclax + AZD7762; first compound 0.01 µM)	relative viability (Venetoclax + AZD7762; first compound 0.03162 µM)	relative viability (Venetoclax + AZD7762; first compound 0.1 µM)	relative viability (Venetoclax + AZD7762; first compound 0.3162 µM)	relative viability (Venetoclax + AZD7762; first compound 1 µM)	relative viability (Venetoclax + Luminespib; first compound 0.01 µM)	relative viability (Venetoclax + Luminespib; first compound 0.03162 µM)	relative viability (Venetoclax + Luminespib; first compound 0.1 µM)	relative viability (Venetoclax + Luminespib; first compound 0.3162 µM)	relative viability (Venetoclax + Luminespib; first compound 1 µM)	relative viability ([1]; first compound 0.02 µM)	relative viability ([1]; first compound 0.06325 µM)	relative viability ([1]; first compound 0.2 µM)	relative viability ([1]; first compound 0.6325 µM)	relative viability (Venetoclax + Palbociclib; first compound 0.01 µM)	relative viability (Venetoclax + Palbociclib; first compound 0.03162 µM)	relative viability (Venetoclax + Palbociclib; first compound 0.1 µM)	relative viability (Venetoclax + Palbociclib; first compound 0.3162 µM)	relative viability (Venetoclax + Palbociclib; first compound 1 µM)
NCI-H1437	1.14	1.14	1.11	1.08	1.07	1.07	1.19	1.13	1.15	1.07	0.319	0.292	0.258	0.224	0.314	0.303	0.282	0.285	0.251
NCI-H2347	0.729	0.894	0.663	0.723	0.76	0.307	0.702	0.405	0.283	0.948	0.401	0.435	0.388	0.361	0.41	0.388	0.322	0.483	0.414
NCI-H522	1.01	0.769	0.85	0.923	0.689	1.14	1.21	1.04	–	1.19	0.98	0.92	0.755	0.793	0.929	0.95	0.925	0.816	0.968
LC-2-ad	0.992	0.856	0.809	0.845	0.802	1.05	0.962	0.981	1.01	0.898	0.504	0.547	0.492	0.453	0.456	0.532	0.465	0.491	0.508
NCI-H2170	0.735	0.805	0.692	0.806	0.763	0.589	0.427	0.766	0.737	0.689	0.406	0.43	0.414	0.414	0.378	0.412	0.389	0.368	0.355
NCI-H2126	1.06	1.01	0.932	1.02	1	0.866	0.95	0.991	0.961	0.87	0.333	0.265	0.35	0.333	0.368	0.34	0.363	0.374	0.336
EPLC-272H	0.192	0.188	0.229	0.318	0.225	0.64	0.368	0.212	0.171	0.367	0.271	0.256	0.287	0.232	0.351	0.298	0.345	0.338	0.318
PC-14	0.346	0.361	0.315	0.413	0.301	0.175	0.122	0.15	0.153	0.154	0.482	0.369	0.363	0.309	0.521	0.514	0.546	0.574	0.437
LXF-289	1.19	1.06	1.02	1.06	1.01	0.787	0.7	0.61	0.663	0.472	0.554	0.529	0.468	0.468	0.624	0.592	0.631	0.556	0.552
NCI-H441	1.14	1.27	1.05	1.4	1.09	0.337	0.372	0.434	0.299	0.427	0.168	0.154	0.157	0.139	0.218	0.27	0.241	0.2	0.18
NCI-H727	0.592	0.769	0.423	0.648	0.604	0.465	0.439	0.209	0.303	0.357	0.473	0.517	0.489	0.423	0.655	0.586	0.658	0.82	0.651
NCI-H838	0.93	0.999	0.877	0.923	0.837	0.408	0.255	0.24	0.378	0.275	0.206	0.191	0.201	0.203	0.236	0.212	0.217	0.208	0.2
NCI-H1793	0.638	0.441	0.346	0.299	0.259	0.152	0.194	0.164	0.19	0.162	0.267	0.293	0.249	0.199	0.296	0.304	0.306	0.327	0.27
NCI-H1792	0.58	0.698	0.703	0.608	0.565	0.381	0.492	0.329	0.374	0.375	0.646	0.566	0.46	0.4	0.657	0.678	0.65	0.699	0.583
NCI-H1355	0.723	0.733	0.705	0.716	0.652	0.748	0.759	0.667	0.782	0.778	0.315	0.284	0.266	0.241	0.428	0.387	0.404	0.424	0.356
HARA	0.299	0.214	–	0.25	0.285	0.814	0.657	0.751	0.913	0.823	0.359	0.244	0.236	0.165	0.289	0.279	–	0.26	0.272
201T	0.572	0.634	0.612	0.644	0.639	1.01	1.08	1.04	0.996	1.05	0.357	0.352	0.314	0.329	0.364	0.353	0.321	0.331	0.334

From the supplement of paper PMC10307832
